{"source": "ChEMBL document CHEMBL1129074", "about": "“Inhibitors of human immunodeficiency virus type 1 derived from gp41 transmembrane protein: structure--activity studies” (J Med Chem, 1996)", "note": "Peptide text beside a SMILES is read from it."}
{"tested_on": "MT4", "assay": "Inhibitory potency of gp41 fragment against HIV-1 induced cytopathic effect in MT-4 cell assay", "type": "functional, cell-based", "details": "Homo sapiens", "units": {"IC50": "µM"}}
{"smiles": "CC[C@H](C)[C@H](NC(=O)CNC(=O)[C@H](Cc1c[nH]c2ccccc12)NC(=O)[C@@H](NC(=O)[C@@H](NC(=O)[C@H](CC(C)C)NC(=O)[C@H](CCC(N)=O)NC(=O)[C@H](CC(C)C)NC(=O)CNC(=O)CNC(=O)[C@H](CS)NC(C)=O)[C@@H](C)O)C(C)C)C(=O)N[C@@H](CCCCN)C(=O)N[C@@H](CCC(N)=O)C(=O)N[C@@H](CC(C)C)C(=O)N[C@@H](CCC(N)=O)C(=O)N[C@@H](C)C(=O)N[C@@H](CCCN=C(N)N)C(=O)N[C@H](C(=O)N[C@@H](CC(C)C)C(=O)N[C@@H](C)C(=O)N[C@H](C(=O)N[C@@H](CCC(=O)O)C(=O)N[C@@H](CCCN=C(N)N)C(=O)N[C@@H](Cc1ccc(O)cc1)C(=O)N[C@@H](CC(C)C)C(=O)N[C@@H](CCCCN)C(=O)N[C@@H](CC(=O)O)C(=O)N[C@@H](CCC(N)=O)C(=O)O)C(C)C)[C@@H](C)CC", "note": "(Ac-CGGLQLTVWGIKQLQARILAVERYLKDQ-OH)", "IC50": 60.5}
{"smiles": "CC[C@H](C)[C@H](NC(=O)CNC(=O)[C@H](Cc1c[nH]c2ccccc12)NC(=O)[C@@H](NC(=O)[C@@H](NC(=O)[C@H](CC(C)C)NC(=O)[C@H](CCC(N)=O)NC(=O)[C@H](CC(C)C)NC(=O)[C@H](CC(C)C)NC(=O)[C@H](Cc1c[nH]cn1)NC(=O)[C@H](CCC(N)=O)NC(=O)[C@H](CCC(N)=O)NC(=O)[C@H](C)NC(=O)[C@H](CCC(=O)O)NC(=O)[C@@H](NC(=O)[C@H](C)NC(=O)[C@H](CCCN=C(N)N)NC(=O)[C@H](CC(C)C)NC(=O)[C@H](CC(C)C)NC(=O)[C@H](CC(N)=O)NC(=O)[C@H](CC(N)=O)NC(=O)CNC(=O)CNC(=O)[C@H](CS)NC(C)=O)[C@@H](C)CC)[C@@H](C)O)C(C)C)C(=O)N[C@@H](CCCCN)C(=O)N[C@@H](CCC(N)=O)C(=O)O", "note": "(Ac-CGGNNLLRAIEAQQHLLQLTVWGIKQ-OH)", "IC50": 14.8}
{"smiles": "CC[C@H](C)[C@H](NC(C)=O)C(=O)N[C@@H](CCC(=O)O)C(=O)N[C@@H](C)C(=O)N[C@@H](CCC(N)=O)C(=O)N[C@@H](CCC(N)=O)C(=O)N[C@@H](Cc1c[nH]cn1)C(=O)N[C@@H](CC(C)C)C(=O)N[C@@H](CC(C)C)C(=O)N[C@@H](CCC(N)=O)C(=O)N[C@@H](CC(C)C)C(=O)N[C@H](C(=O)N[C@H](C(=O)N[C@@H](Cc1c[nH]c2ccccc12)C(=O)NCC(=O)N[C@H](C(=O)N[C@@H](CCCCN)C(=O)N[C@@H](CCC(N)=O)C(=O)N[C@@H](CC(C)C)C(=O)N[C@@H](CCC(N)=O)C(=O)N[C@@H](C)C(=O)N[C@@H](CCCN=C(N)N)C(=O)N[C@H](C(=O)N[C@@H](CC(C)C)C(=O)N[C@@H](C)C(=O)N[C@H](C(=O)N[C@@H](CCC(=O)O)C(=O)O)C(C)C)[C@@H](C)CC)[C@@H](C)CC)C(C)C)[C@@H](C)O", "note": "(Ac-IEAQQHLLQLTVWGIKQLQARILAVE-OH)", "IC50": 6.5}
{"smiles": "CC[C@H](C)[C@H](NC(=O)CNC(=O)[C@H](Cc1c[nH]c2ccccc12)NC(=O)[C@@H](NC(=O)[C@@H](NC(=O)[C@H](CC(C)C)NC(=O)[C@H](CCC(N)=O)NC(=O)[C@H](CC(C)C)NC(=O)[C@H](CC(C)C)NC(=O)[C@H](Cc1c[nH]cn1)NC(=O)[C@H](C)NC(=O)[C@H](CCC(N)=O)NC(=O)[C@H](C)NC(=O)[C@H](CCC(=O)O)NC(=O)[C@@H](NC(=O)[C@H](C)NC(=O)[C@H](CCCN=C(N)N)NC(=O)[C@H](C)NC(=O)[C@H](CC(C)C)NC(=O)[C@H](CC(N)=O)NC(=O)[C@H](CC(N)=O)NC(C)=O)[C@@H](C)CC)[C@@H](C)O)C(C)C)C(=O)N[C@@H](CCCCN)C(=O)N[C@@H](CCC(N)=O)C(=O)N[C@@H](CC(C)C)C(=O)N[C@@H](CCC(N)=O)C(=O)N[C@@H](C)C(=O)N[C@@H](CCCN=C(N)N)C(=O)N[C@H](C(=O)N[C@@H](CC(C)C)C(=O)N[C@@H](C)C(=O)N[C@H](C(=O)N[C@@H](CCC(=O)O)C(=O)N[C@@H](CCCN=C(N)N)C(=O)N[C@@H](Cc1ccc(O)cc1)C(=O)N[C@@H](CC(C)C)C(=O)N[C@@H](CCCCN)C(=O)N[C@@H](CC(=O)O)C(=O)N[C@@H](CCC(N)=O)C(=O)O)C(C)C)[C@@H](C)CC", "note": "(Ac-NNLARAIEAQAHLLQLTVWGIKQLQARILAVERYLKDQ-OH)", "IC50": 3}
{"smiles": "CC[C@H](C)[C@H](NC(=O)CNC(=O)[C@H](Cc1c[nH]c2ccccc12)NC(=O)[C@@H](NC(=O)[C@@H](NC(=O)[C@H](CC(C)C)NC(=O)[C@H](CCC(N)=O)NC(=O)[C@H](CC(C)C)NC(=O)[C@H](CC(C)C)NC(=O)[C@H](Cc1c[nH]cn1)NC(=O)[C@H](CCC(N)=O)NC(C)=O)[C@@H](C)O)C(C)C)C(=O)N[C@@H](CCCCN)C(=O)N[C@@H](CCC(N)=O)C(=O)N[C@@H](CC(C)C)C(=O)N[C@@H](CCC(N)=O)C(=O)N[C@@H](C)C(=O)N[C@@H](CCCN=C(N)N)C(=O)N[C@H](C(=O)N[C@@H](CC(C)C)C(=O)N[C@@H](C)C(=O)N[C@H](C(=O)N[C@@H](CCC(=O)O)C(=O)O)C(C)C)[C@@H](C)CC", "note": "(Ac-QHLLQLTVWGIKQLQARILAVE-OH)", "IC50": 4.3}
{"smiles": "CC[C@H](C)[C@H](NC(=O)CNC(=O)[C@H](Cc1c[nH]c2ccccc12)NC(=O)[C@@H](NC(=O)[C@@H](NC(=O)[C@H](CC(C)C)NC(=O)[C@H](CCC(N)=O)NC(=O)[C@H](CC(C)C)NC(=O)[C@H](CC(C)C)NC(=O)[C@H](Cc1c[nH]cn1)NC(=O)[C@H](CCC(N)=O)NC(=O)[C@H](CCC(N)=O)NC(=O)[C@H](C)NC(=O)[C@H](CCC(=O)O)NC(=O)[C@@H](NC(=O)[C@H](C)NC(=O)[C@H](CCCN=C(N)N)NC(=O)[C@H](CC(C)C)NC(=O)[C@H](CC(C)C)NC(=O)[C@H](CC(N)=O)NC(=O)[C@@H](N)CC(N)=O)[C@@H](C)CC)[C@@H](C)O)C(C)C)C(=O)N[C@@H](CCCCN)C(=O)N[C@@H](CCC(N)=O)C(=O)N[C@@H](CC(C)C)C(=O)N[C@@H](CCC(N)=O)C(=O)N[C@@H](C)C(=O)N[C@@H](CCCN=C(N)N)C(=O)N[C@H](C(=O)N[C@@H](CC(C)C)C(=O)N[C@@H](C)C(=O)N[C@H](C(=O)N[C@@H](CCC(=O)O)C(=O)N[C@@H](CCCN=C(N)N)C(=O)N[C@@H](Cc1ccc(O)cc1)C(=O)N[C@@H](CC(C)C)C(=O)N[C@@H](CCCCN)C(=O)N[C@@H](CC(=O)O)C(=O)N[C@@H](CCC(N)=O)C(=O)O)C(C)C)[C@@H](C)CC", "note": "(H-NNLLRAIEAQQHLLQLTVWGIKQLQARILAVERYLKDQ-OH)", "IC50": 2.7}
{"smiles": "CC[C@H](C)[C@H](NC(=O)CNC(=O)[C@H](Cc1c[nH]c2ccccc12)NC(=O)[C@@H](NC(=O)[C@@H](NC(=O)[C@H](CC(C)C)NC(=O)[C@H](CCC(N)=O)NC(=O)[C@H](CC(C)C)NC(=O)[C@H](CC(C)C)NC(=O)CCCCCN)[C@@H](C)O)C(C)C)C(=O)N[C@@H](CCCCN)C(=O)N[C@@H](CCC(N)=O)C(=O)N[C@@H](CC(C)C)C(=O)N[C@@H](CCC(N)=O)C(=O)N[C@@H](C)C(=O)N[C@@H](CCCN=C(N)N)C(=O)N[C@H](C(=O)N[C@@H](CC(C)C)C(=O)O)[C@@H](C)CC", "note": "(HELM PEPTIDE1{[NCCCCCC(=O)[*:2]].L.L.Q.L.T.V.W.G.I.K.Q.L.Q.A.R.I.L}$$$$V2.0)", "IC50": 10.4}
{"smiles": "CC[C@H](C)[C@H](NC(=O)CNC(=O)[C@H](Cc1c[nH]c2ccccc12)NC(=O)[C@@H](NC(=O)[C@@H](NC(=O)[C@H](CC(C)C)NC(=O)[C@H](CCC(N)=O)NC(=O)[C@H](CC(C)C)NC(=O)[C@H](CC(C)C)NC(=O)[C@H](Cc1c[nH]cn1)NC(=O)[C@H](CCC(N)=O)NC(=O)[C@H](CCC(N)=O)NC(=O)[C@H](C)NC(=O)[C@H](CCC(=O)O)NC(=O)[C@@H](NC(=O)[C@H](C)NC(=O)[C@H](CCCN=C(N)N)NC(=O)[C@H](CC(C)C)NC(=O)[C@H](CC(C)C)NC(=O)[C@H](CC(N)=O)NC(=O)[C@H](CC(N)=O)NC(C)=O)[C@@H](C)CC)[C@@H](C)O)C(C)C)C(=O)N[C@@H](CCCCN)C(=O)N[C@@H](CCC(N)=O)C(=O)N[C@@H](CC(C)C)C(=O)N[C@@H](CCC(N)=O)C(=O)N[C@@H](C)C(=O)N[C@@H](CCCN=C(N)N)C(=O)N[C@H](C(=O)N[C@@H](C)C(=O)N[C@@H](C)C(=O)N[C@@H](C)C(=O)NCCCCCC(=O)N[C@@H](C)C(=O)N[C@@H](C)C(=O)N[C@@H](C)C(=O)N[C@@H](C)C(=O)N[C@@H](CC(=O)O)C(=O)N[C@@H](CCCCN)C(=O)O)[C@@H](C)CC", "note": "(HELM PEPTIDE1{[ac].N.N.L.L.R.A.I.E.A.Q.Q.H.L.L.Q.L.T.V.W.G.I.K.Q.L.Q.A.R.I.A.A.A.[O=C(CCCCCN[*:1])[*:2]].A.A.A.A.D.K}$$$$V2.0)", "IC50": 6.3}
{"smiles": "CC[C@H](C)[C@H](NC(=O)[C@H](CCCN=C(N)N)NC(=O)[C@H](C)NC(=O)[C@H](CCC(N)=O)NC(=O)[C@H](CC(C)C)NC(=O)[C@H](CCC(N)=O)NC(=O)CCCCCNC(=O)CNC(=O)[C@H](Cc1c[nH]c2ccccc12)NC(=O)[C@@H](NC(=O)[C@@H](NC(=O)[C@H](CC(C)C)NC(=O)[C@H](CCC(N)=O)NC(=O)[C@H](CC(C)C)NC(=O)[C@H](CC(C)C)NC(=O)[C@H](Cc1c[nH]cn1)NC(=O)[C@H](CCC(N)=O)NC(C)=O)[C@@H](C)O)C(C)C)C(=O)N[C@@H](CC(C)C)C(=O)N[C@@H](C)C(=O)N[C@H](C(=O)N[C@@H](CCC(=O)O)C(=O)O)C(C)C", "note": "(HELM PEPTIDE1{[ac].Q.H.L.L.Q.L.T.V.W.G.[O=C(CCCCCN[*:1])[*:2]].Q.L.Q.A.R.I.L.A.V.E}$$$$V2.0)", "IC50": 40}
{"smiles": "CC[C@H](C)[C@H](NC(=O)[C@H](CCCN=C(N)N)NC(=O)[C@H](C)NC(=O)[C@H](CCC(N)=O)NC(=O)[C@H](CC(C)C)NC(=O)[C@H](CCC(N)=O)NC(=O)CCCCCNC(=O)CCCCCNC(=O)CNC(=O)[C@H](Cc1c[nH]c2ccccc12)NC(=O)[C@@H](NC(=O)[C@@H](NC(=O)[C@H](CC(C)C)NC(=O)[C@H](CCC(N)=O)NC(=O)[C@H](CC(C)C)NC(=O)[C@H](CC(C)C)NC(=O)[C@H](Cc1c[nH]cn1)NC(=O)[C@H](CCC(N)=O)NC(C)=O)[C@@H](C)O)C(C)C)C(=O)N[C@@H](CC(C)C)C(=O)N[C@@H](C)C(=O)N[C@H](C(=O)N[C@@H](CCC(=O)O)C(=O)O)C(C)C", "note": "(HELM PEPTIDE1{[ac].Q.H.L.L.Q.L.T.V.W.G.[O=C(CCCCCN[*:1])[*:2]].[O=C(CCCCCN[*:1])[*:2]].Q.L.Q.A.R.I.L.A.V.E}$$$$V2.0)", "IC50": 65.7}
{"smiles": "CC[C@H](C)[C@H](NC(=O)[C@H](CCCN=C(N)N)NC(=O)[C@H](C)NC(=O)[C@H](CCC(N)=O)NC(=O)[C@H](CC(C)C)NC(=O)[C@H](CCC(N)=O)NC(=O)CCCCCNC(=O)[C@H](Cc1c[nH]c2ccccc12)NC(=O)[C@@H](NC(=O)[C@@H](NC(=O)[C@H](CC(C)C)NC(=O)[C@H](CCC(N)=O)NC(=O)[C@H](CC(C)C)NC(=O)[C@H](CC(C)C)NC(=O)[C@H](Cc1c[nH]cn1)NC(=O)[C@H](CCC(N)=O)NC(C)=O)[C@@H](C)O)C(C)C)C(=O)N[C@@H](CC(C)C)C(=O)N[C@@H](C)C(=O)N[C@H](C(=O)N[C@@H](CCC(=O)O)C(=O)O)C(C)C", "note": "(HELM PEPTIDE1{[ac].Q.H.L.L.Q.L.T.V.W.[O=C(CCCCCN[*:1])[*:2]].Q.L.Q.A.R.I.L.A.V.E}$$$$V2.0)", "IC50": 40}
